Test results taken from paper PMC5840146, “Structure-Activity Relationship Analysis of 3-Phenylcoumarin-Based Monoamine Oxidase B Inhibitors” (Frontiers in Chemistry, 2018).

Key:
ERα = target: T1, ERα (Homo sapiens, UniProt P03372); test: PolarScreen ER Alpha Competitor Assay (fluorescence polarization); type: binding; settings: for ER inhibition %: 10 μM
T1 construct: purchased Life Technologies
T1 sequence (P03372 1-595): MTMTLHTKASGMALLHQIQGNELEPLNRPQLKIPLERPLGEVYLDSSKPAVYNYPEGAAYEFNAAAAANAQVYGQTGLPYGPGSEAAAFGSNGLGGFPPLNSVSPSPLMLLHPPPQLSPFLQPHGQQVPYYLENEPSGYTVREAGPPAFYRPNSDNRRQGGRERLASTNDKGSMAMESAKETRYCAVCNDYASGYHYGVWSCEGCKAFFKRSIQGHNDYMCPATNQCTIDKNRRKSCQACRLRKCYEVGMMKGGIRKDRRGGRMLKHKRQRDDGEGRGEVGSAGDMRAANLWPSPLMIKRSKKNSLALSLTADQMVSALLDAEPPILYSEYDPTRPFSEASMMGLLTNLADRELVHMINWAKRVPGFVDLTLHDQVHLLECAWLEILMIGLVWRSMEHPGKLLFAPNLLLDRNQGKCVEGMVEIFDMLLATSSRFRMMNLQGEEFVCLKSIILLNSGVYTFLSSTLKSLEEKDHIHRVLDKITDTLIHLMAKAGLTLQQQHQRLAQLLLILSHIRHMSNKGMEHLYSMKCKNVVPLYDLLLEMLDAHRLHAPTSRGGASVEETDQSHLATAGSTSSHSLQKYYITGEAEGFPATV
Experimental: The pIC50 values for the derivatives (Table 1, Supplementary Table S1) were measured with green PolarScreen™ ER Alpha Competitor Assay (Life Technologies, CA, The United States of America) kit, following the manufacturer protocol as previously described (Niinivehmas et al., [2016]). The final concentration of the compounds ranged from 0.0007 to 10 000 nM in the dilution series which were performed as duplicates. The molecules were combined with 25 nM ERα and 4.5 nM fluormone in the assay buffer and placed on black low volume 384-well assay plate with NBS surface (Corning, NY, The United States of America). After mixing the assay plate, it was incubated for 2 h in RT. The fluorescence polarization was measured using excitation wave length 485 and emission wave length 535 with bandwidths of 25/20 nm on a 2104 EnVision® Multilabel Plate Reader which had EnVision Workstation version 1.7 (PerkinElmer, MA, The United States of America).

MAO-A = target: T2, MAO-A (Homo sapiens, UniProt P21397); test: continuous spectrophotometric MAO-A inhibition assay; type: biochemical; settings: for MAO-A inhibition %: 100 µM, 1h
T2 construct: purchased Sigma-Aldrich
T2 sequence (P21397 1-527): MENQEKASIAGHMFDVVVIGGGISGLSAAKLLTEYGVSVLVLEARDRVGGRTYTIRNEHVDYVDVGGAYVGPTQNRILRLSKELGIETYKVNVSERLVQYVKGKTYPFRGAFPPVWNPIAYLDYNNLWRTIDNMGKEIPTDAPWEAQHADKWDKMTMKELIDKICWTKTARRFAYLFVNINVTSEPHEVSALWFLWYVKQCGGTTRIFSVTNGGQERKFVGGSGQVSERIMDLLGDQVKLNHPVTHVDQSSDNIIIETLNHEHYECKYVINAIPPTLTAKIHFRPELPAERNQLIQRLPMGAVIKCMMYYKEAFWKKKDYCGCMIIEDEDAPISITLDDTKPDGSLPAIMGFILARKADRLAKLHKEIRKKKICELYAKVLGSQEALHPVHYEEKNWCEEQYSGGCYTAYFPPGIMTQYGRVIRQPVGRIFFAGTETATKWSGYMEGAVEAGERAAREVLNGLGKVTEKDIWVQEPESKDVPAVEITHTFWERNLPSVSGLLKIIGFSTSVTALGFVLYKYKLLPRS
Experimental: (§1) Both monoamine oxidase A (MAO-A) and B (MAO-B) protein and the reagents for the chromogenic solution of vanillic acid (4-hydroxy-3-methoxylbenzoic acid, 97% purity), 4-aminoantipyrine (reagent grade), horseradish peroxidase and the substrate tyramine hydrochloride (minimum 99% purity) as well as the potassium phosphate buffer, which was prepared using potassium phosphate dibasic trihydrate (≥99% ReagentPlus™) and potassium phosphate monobasic (minimum 98% purity, molecular biology tested), were purchased from Sigma-Aldrich (St. Louis, MO, USA) for the spectrophotometric assay.
(§2) The protocol for continuous spectrophotometric assay (Holt et al., [1997]) was followed in the activity measurements. The assay was performed in 0.2 M potassium phosphate buffer pH 7.6 on 96-well plates (Nunc™ 96F microwell plate without a lid, Nunc A/S, Roskilde, DK) in 200 μl total volume. The chromogenic solution containing 1 mM vanillic acid, 500 μM 4-aminoantipyrine and 8 U/ml horseradish peroxidase in 0.2 M potassium phosphate buffer pH 7.6 was mixed anew for each measurement. 5 mM tyramine solution was used as the substrate. In order to determine the activity of both MAO-B and MAO-A, concentration series as duplicates were prepared. The protein was combined with the chromogenic solution and incubated 30 min at 37°C. The background signal was measured using multilabel reader (Victor^TM X4, 2030 Multilabel Reader, PerkinElmer, Waltham, MA, USA) at A490 before reaching the total 200 μl volume by adding 20 μl of tyramine to final concentration of 0.5 mM on the plate. As a result, the final concentration of the chromogenic solution on the plate was 250 μM vanillic acid, 125 μM 4-aminoantipyrine and 2 U/ml horseradish peroxide. After adding the substrate, the plates were measured 300 times every 15 s using 1 s exposure time. The device was set to 37°C for the duration of the experiment.
(§3) The experiment conditions should produce absorbance change of ~0.35 (Holt et al., [1997]). […] The same wide panel of coumarin derivatives was additionally used to analyze the MAO-A inhibition at 100 μM (Table 1, Supplementary Table S1).
(§4) The measured data was then fitted on a curve using non-linear regression with the equation for log[inhibitor] vs. response. The IC50 values were therefore determined based on the curve fit. The fitted curves are shown on –log scale in Supplementary Figures S1, S2.

MAO-B [1] = target: T3, MAO-B (Homo sapiens, UniProt P27338); test: continuous spectrophotometric MAO-B inhibition assay; type: biochemical; settings: for MAO-B inhibition %: 10 µM, 2h; for LiPE: LiPE = pIC50 - QPlogPo/w, new analogs and pargyline; for IC50: dilution series 50 μM to 1 nM, duplicates, read-out: MAO-B inhibition IC50
T3 construct: purchased Sigma-Aldrich
T3 sequence (P27338 1-520): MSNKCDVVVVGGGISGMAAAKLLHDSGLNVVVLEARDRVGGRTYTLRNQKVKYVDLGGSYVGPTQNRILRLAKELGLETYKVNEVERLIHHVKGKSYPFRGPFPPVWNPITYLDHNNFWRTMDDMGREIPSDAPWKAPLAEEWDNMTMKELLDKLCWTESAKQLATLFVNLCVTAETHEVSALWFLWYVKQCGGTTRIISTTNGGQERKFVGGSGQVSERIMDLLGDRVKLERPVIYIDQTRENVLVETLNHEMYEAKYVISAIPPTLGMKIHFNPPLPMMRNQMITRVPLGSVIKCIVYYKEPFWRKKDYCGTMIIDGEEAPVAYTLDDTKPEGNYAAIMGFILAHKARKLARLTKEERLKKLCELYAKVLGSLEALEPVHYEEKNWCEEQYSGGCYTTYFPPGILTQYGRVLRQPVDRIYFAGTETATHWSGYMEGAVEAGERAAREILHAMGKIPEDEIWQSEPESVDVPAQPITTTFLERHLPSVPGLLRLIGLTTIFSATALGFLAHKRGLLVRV
Experimental: as §1, §2, §3, §4

MAO-B [2] = target: T3, MAO-B; test: MAO-B inhibition of prior 3-phenylcoumarins (literature data); type: biochemical; settings: LiPE = pIC50 - QPlogPo/w, literature IC50
human CYP1A2 = target: T4, human CYP1A2 (Homo sapiens, UniProt P05177); test: CYP1A2 inhibition, 7-ethoxyresorufin fluorescence assay; type: biochemical
T4 construct: purchased Corning Inc
T4 sequence (P05177 1-516): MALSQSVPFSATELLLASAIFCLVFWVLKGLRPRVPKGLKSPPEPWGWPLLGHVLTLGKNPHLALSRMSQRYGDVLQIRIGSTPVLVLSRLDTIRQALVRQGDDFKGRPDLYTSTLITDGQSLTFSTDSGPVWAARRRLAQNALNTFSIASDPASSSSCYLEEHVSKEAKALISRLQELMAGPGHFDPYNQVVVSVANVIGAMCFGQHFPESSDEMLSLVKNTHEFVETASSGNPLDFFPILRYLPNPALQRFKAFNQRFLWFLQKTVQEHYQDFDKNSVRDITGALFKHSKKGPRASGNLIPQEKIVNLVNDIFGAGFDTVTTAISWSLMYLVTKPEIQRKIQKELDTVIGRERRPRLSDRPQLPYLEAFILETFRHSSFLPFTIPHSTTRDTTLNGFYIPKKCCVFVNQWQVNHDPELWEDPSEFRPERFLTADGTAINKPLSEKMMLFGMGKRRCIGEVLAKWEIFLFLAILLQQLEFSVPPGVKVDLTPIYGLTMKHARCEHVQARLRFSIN
Experimental: Inhibition of CYP1A2 activity was determined with commercial heterologously expressed human CYP1A2 enzyme (Corning Inc., Corning, NY, USA) as described earlier (Korhonen et al., [2005]). The metabolic activity was not in the scope of this particular study. The assay was adapted to the 96-well plate format. In each well, a 150 μL incubation volume contained 100 mM Tris-HCl buffer (pH 7.4), 4.2 mM MgCl2,1 μM 7-ethoxyresorufin, 0.5 pmol of cDNA expressed CYP1A2, […] inhibitor, and a NADPH-generating system. All inhibitors were dissolved in ethanol, and the final concentration of ethanol was 2% in all incubations. The reaction was initiated by adding the NADPH-regenerating system after a 10 min preincubation at 37°C, and after a 20 min incubation, the reaction was terminated by the addition of 110 μL of 80% acetonitrile/20% 0.5 M Tris base. The formed fluorescence was measured with a Victor2 plate counter (Perkin-Elmer Life Sciences Wallac, Turku, Finland) at 570 nm excitation and 616 nm emission.

recombinant human HSD1 = target: T5, recombinant human HSD1 (Homo sapiens, UniProt P14061); test: HSD1 inhibition by HPLC with tritium labeled estrone/estradiol; type: biochemical; settings: 1 μM
T5 construct: made in house; host or cells: Sf9 insect cells
T5 sequence (P14061 1-328): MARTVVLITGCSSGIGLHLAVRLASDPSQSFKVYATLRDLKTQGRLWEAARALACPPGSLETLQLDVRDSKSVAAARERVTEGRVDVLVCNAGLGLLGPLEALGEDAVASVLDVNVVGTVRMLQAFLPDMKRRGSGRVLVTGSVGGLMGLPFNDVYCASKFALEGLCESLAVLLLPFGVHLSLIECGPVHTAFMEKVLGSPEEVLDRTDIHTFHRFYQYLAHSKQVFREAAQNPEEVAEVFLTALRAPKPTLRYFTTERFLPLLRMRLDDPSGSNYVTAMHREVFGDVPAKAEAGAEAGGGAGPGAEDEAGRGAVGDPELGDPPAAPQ

ER inhibition % (ERα) | MAO-A inhibition % (MAO-A) | MAO-B inhibition % (MAO-B [1]) | IC50 (human CYP1A2) | Compound | further results
0.44% | 48.86% | 23.30% | – | O=c1oc2cc(O)cc(O)c2cc1-c1cccc(O)c1 [derivative 42] | –
– | – | – | – | COc1ccc(-c2c(O)c3ccccc3oc2=O)cc1Cl [CHEMBL1934675] | LiPE (MAO-B [2]): 1.85
18.58% | 0.00% | 25.74% | – | O=c1oc2cc(O)ccc2cc1-c1cccc(O)c1 [derivative 40] | ER activity (in words) (ERα): prominent
– | – | – | – | Cc1ccc2oc(=O)c(-c3ccc(O)cc3)cc2c1 [CHEMBL577099] | LiPE (MAO-B [2]): 4.06
0.13% | 43.38% | 21.38% | – | O=c1oc2cc(O)cc(O)c2cc1-c1ccc(O)cc1 [derivative 45] | –
– | – | – | 370 µM | CC(=O)Oc1ccc2cc(-c3ccc(N(C)C)cc3)c(=O)oc2c1 [derivative 19, 3-(4-(dimethylamino)phenyl)-2-oxo-2H-chromen-7-yl acetate] | inhibition at 100 µM (MAO-A): 0%; inhibition at 1 µM (recombinant human HSD1): 15%; inhibition at 10 µM (MAO-B [1]): 85.4%; LiPE (MAO-B [1]): 3.27; IC50 (MAO-B [1]): 0.866 µM
– | 0.00% | 8.16% | 65 µM | O=c1oc2c(CN3CCCCC3)c(O)ccc2cc1-c1ccccc1 [derivative 50] | HSD1 inhibition % (recombinant human HSD1): 1.50%; MAO-B inhibition (in words) (MAO-B [1]): activity is lost
0.66% | 0.00% | 10.23% | – | O=c1oc2c(Cl)cc(Cl)cc2cc1-c1ccc(F)cc1 [derivative 49] | HSD1 inhibition % (recombinant human HSD1): 1.30%
96.18% | 22.39% | 22.52% | – | O=c1oc2c(O)cccc2cc1-c1ccc(O)cc1 [derivative 44] | ER activity (in words) (ERα): prominent
– | – | – | 15 µM | COc1ccc(-c2cc3cc(OC)ccc3oc2=O)cc1 [derivative 10, 6-methoxy-3-(4-methoxyphenyl)-2H-chromen-2-one] | inhibition at 100 µM (MAO-A): 10.1%; inhibition at 1 µM (recombinant human HSD1): 0%; inhibition at 10 µM (MAO-B [1]): 97.6%; LiPE (MAO-B [1]): 3.25; IC50 (MAO-B [1]): 0.4 µM
0.00% | 56.76% | 22.93% | – | O=c1oc2c(O)cccc2cc1-c1cccc(O)c1 [derivative 43] | –
– | 0.00% | 66.79% | 7 µM | CC(=O)Oc1cccc2cc(-c3ccc(N(C)C)cc3)c(=O)oc12 [derivative 26] | HSD1 inhibition % (recombinant human HSD1): 0.00%
– | – | – | 35 µM | CN(C)c1ccc(-c2cc3ccc(O)cc3oc2=O)cc1 [derivative 17, 3-(4-(dimethylamino)phenyl)-7-hydroxy-2H-chromen-2-one] | inhibition at 100 µM (MAO-A): 4.74%; inhibition at 1 µM (recombinant human HSD1): 5%; inhibition at 10 µM (MAO-B [1]): 90.1%; LiPE (MAO-B [1]): 3.62; IC50 (MAO-B [1]): 0.384 µM
